Laboratory results: patent US20130014428A1, “METHODS OF MONITORING AND CONTROLLING THE WALNUT TWIG BEETLE, PITYOPHTHORUS JUGLANDIS” (The United States of America as Represented by the …, priority 2011, published 2013)

What was measured:
[1] = system: walnut twig beetle (WTB), Pityophthorus juglandis; test: Example 1 Field Test 1: flight response to X and related isomers, yellow sticky card traps; format: in vivo
Experimental: Field Bioassays of Semiochemicals. […] Contech Enterprises Inc., Delta, British Columbia, Canada) and attached to yellow sticky card traps ([…], OK). In addition, synthesized (+) and (-) enantiomers of trans-conophthorin were tested in 400 μl polyethylene Eppendorf microcentrifuge tubes. Four field studies were conducted (Table 2) that tested the flight responses to: 3-methyl-2-buten-l-ol and related isomers (Field Test 1); 3-methyl-2-buten-l-ol with and without racemic trans-conophthorin (Field Test 2); 3-methyl-2-buten-l-ol with and without the purified enantiomers of trans-conophthorin (Field Test 3); and 3-methyl-2-buten-l-ol with and without racemic chalcogran (Field Test 4). [table] Statistical Analysis. Field Tests 1-4 were each analyzed for treatment effect by using Friedman's non-parametric analysis of variance. (See Zar, J. H. 2010. Biostatistical Analysis, 5th Ed. Pearson Prentice Hall, New Jersey). Males and females were subjected to separate analyses. All treatments within experiments yielding a significant treatment effect were compared by using an a posteriori Nemenyi test (Zar 2010) with experimentwise α=0.05. Sex ratios of responding WTB were determined using Cochran's method for unbiased sampling (See Cochran, W. G. 1977. Sampling Techniques, 3rd ed. John Wiley, New York), with 95% confidence intervals calculated by using the Clopper-Pearson method. (See Zar, J. H. 2010. Biostatistical Analysis, 5th Ed. Pearson Prentice Hall, New Jersey).

[2] = system: walnut twig beetle (WTB), Pityophthorus juglandis; test: Example 1 Field Test 3: flight response to X with and without enantiomers of trans-conophthorin; format: in vivo; details: yellow sticky card traps, Pleasanton CA
Experimental: (§1) Field Bioassays of Semiochemicals. To test the attractiveness of the various compounds of interest, some of the commercially available materials listed above were poured into 15 ml capped polyethylene bottles (Product #s A1-1050/002, A1-1055/002; Contech Enterprises Inc., Delta, British Columbia, Canada) and attached to yellow sticky card traps (Trécé, Adair, OK). In addition, synthesized (+) and (−) enantiomers of trans-conophthorin were tested in 400 μl polyethylene Eppendorf microcentrifuge tubes. Four field studies were conducted (Table 2) that tested the flight responses to: 3-methyl-2-buten-l-ol and related isomers (Field Test 1); 3-methyl-2-buten-l-ol with and without racemic trans-conophthorin (Field Test 2); 3-methyl-2-buten-l-ol with and without the purified enantiomers of trans-conophthorin (Field Test 3); and 3-methyl-2-buten-l-ol with and without racemic chalcogran (Field Test 4).
(§2) Statistical Analysis. Field Tests 1-4 were each analyzed for treatment effect by using Friedman's non-parametric analysis of variance. (See Zar, J. H. 2010. Biostatistical Analysis, 5th Ed. Pearson Prentice Hall, New Jersey). Males and females were subjected to separate analyses. All treatments within experiments yielding a significant treatment effect were compared by using an a posteriori Nemenyi test (Zar 2010) with experimentwise α=0.05. Sex ratios of responding WTB were determined using Cochran's method for unbiased sampling (See Cochran, W. G. 1977. Sampling Techniques, 3rd ed. John Wiley, New York), with 95% confidence intervals calculated by using the Clopper-Pearson method. (See Zar, J. H. 2010. Biostatistical Analysis, 5th Ed. Pearson Prentice Hall, New Jersey).

[3] = system: walnut twig beetle (WTB), Pityophthorus juglandis; test: Example 1 Field Test 4: flight response to X with and without racemic chalcogran; format: in vivo; details: yellow sticky card traps, Davis CA
Experimental: as §1, §2

WTB = test: Trap type: four Lindgren funnel traps and intercept panel trap baited with X; format: in vivo, Pityophthorus juglandis; details: for trap catches, female WTB / trap catches, male WTB: 15-80 mg/d
Experimental: In another set of experiments, the flight response of WTB to four types of Lindgren funnel traps (Contech) and an intercept panel trap (Alpha Scents Inc., Portland Oreg., product # AST0031) was tested at Wolfskill Experimental Orchards in mid-summer. Each trap was baited with the commercial formulation of 3-methyl-2-buten-1-ol (15-80 mg/d, Contech) hung inside the middle funnel of each funnel trap or in a recess in the middle of the cross vane panels of the panel trap. Each trap cup was filled with propylene glycol as described above and the traps were suspended from the top of a 3 m metal conduit pole. Three blocks of traps were installed and trap catches were collected daily when the flight activity was high. The five treatments were re-randomized among the five trap stations within each of the three blocks each time that the traps were emptied.
Statistical Analyses. Analyses of treatment effects for the tests of trap type were performed by using Friedman's non-parametric analysis of variance or a sign test, depending on the number of treatments. (See Zar, J. H. 2010. Biostatistical Analysis. 5th ed. Pearson Prentice Hall, Englewood Cliffs, N.J.) Analysis of treatment effects for the Rain•X experiment was performed by using a Wilcoxon paired sample test. Id. Multiple comparisons for experiments with more than two treatments were performed with an a posteriori Nemenyi test with experimentwise α=0.05. Id. In all cases, male and female WTB were analyzed separately. Proportions of female WTB responding to treatments were calculated and 95% confidence intervals determined by using the Clopper-Pearson method. Id.

[4] = about three months in summer, Davis CA, N=21
[5] = about one month late summer, N=13

**Q.** For `CC(C)=CCO` [X, 3-methyl-2-buten-1-ol], which “flight attraction” value [1] is on record?
**A.** attractive to males and females

**Q.** And the “proportion of females responding” value ([1]; Davis CA)?
**A.** 0.65

**Q.** And the “trap catches, female WTB” value [1, 4]?
**A.** 438

**Q.** What about the “trap catches, male WTB” value [1, 4] of the same molecule?
**A.** 233

**Q.** What about the “proportion of females responding” value [2] of the same molecule?
**A.** 0.80

**Q.** And the “trap catches, female WTB” value ([2]; about one month in fall, N=15)?
**A.** 47

**Q.** And the “trap catches, male WTB” value ([2]; about one month in fall, N=15)?
**A.** 12

**Q.** And the “proportion of females responding” value [3]?
**A.** 0.69

**Q.** And the “trap catches, female WTB” value [3, 5]?
**A.** 94

**Q.** And the “trap catches, male WTB” value [3, 5]?
**A.** 43

**Q.** And the “trap catches, female WTB” value (WTB; 4-unit Lindgren funnel trap)?
**A.** 231

**Q.** What about the “trap catches, male WTB” value (WTB; 4-unit Lindgren funnel trap) of the same molecule?
**A.** 72

**Q.** And the “proportion of females responding” value (WTB; 4-unit trap)?
**A.** 0.76

**Q.** And the “proportion of females responding” value (WTB; 8-unit trap)?
**A.** 0.76

**Q.** What about the “trap catches, female WTB” value (WTB; 8-unit trap) of the same molecule?
**A.** 634

**Q.** What about the “trap catches, male WTB” value (WTB; 8-unit trap) of the same molecule?
**A.** 202

**Q.** What about the “proportion of females responding” value (WTB; 12-unit trap) of the same molecule?
**A.** 0.72

**Q.** And the “trap catches, female WTB” value (WTB; 12-unit trap)?
**A.** 892

**Q.** And the “trap catches, male WTB” value (WTB; 12-unit trap)?
**A.** 352

**Q.** What about the “proportion of females responding” value (WTB; 16-unit trap) of the same molecule?
**A.** 0.73

**Q.** And the “trap catches, female WTB” value (WTB; 16-unit trap)?
**A.** 618

**Q.** And the “trap catches, male WTB” value (WTB; 16-unit trap)?
**A.** 233

**Q.** And the “trap catches, female WTB” value (WTB; intercept panel trap)?
**A.** 296

**Q.** And the “trap catches, male WTB” value (WTB; intercept panel trap)?
**A.** 128

**Q.** And the “proportion of females responding” value (WTB; panel trap)?
**A.** 0.70
